Tests used:
Test in all cases: KinomeScan profiling
Type in all cases: binding
IGF1R = IGF1R (Homo sapiens, UniProt P08069); details: read-out: % control
Outline: (§1)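 First, compounds in DMSO are added at 1 μM to each of 468 kinase assays. Next, RLU signals are normalised between positive control (0%) and DMSO (100%). Finally, kinases under 35% are flagged active.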

NEK7 = NEK7 (Homo sapiens, UniProt Q8TDX7); details: NEK7, 1 μM; read-out: % control
Outline: as §1

SIK = target: T1, SIK (Homo sapiens, UniProt P57059); details: read-out: % control
T1 construct: purchased KinomeScan® (panel service)
T1 sequence (P57059 whole entry): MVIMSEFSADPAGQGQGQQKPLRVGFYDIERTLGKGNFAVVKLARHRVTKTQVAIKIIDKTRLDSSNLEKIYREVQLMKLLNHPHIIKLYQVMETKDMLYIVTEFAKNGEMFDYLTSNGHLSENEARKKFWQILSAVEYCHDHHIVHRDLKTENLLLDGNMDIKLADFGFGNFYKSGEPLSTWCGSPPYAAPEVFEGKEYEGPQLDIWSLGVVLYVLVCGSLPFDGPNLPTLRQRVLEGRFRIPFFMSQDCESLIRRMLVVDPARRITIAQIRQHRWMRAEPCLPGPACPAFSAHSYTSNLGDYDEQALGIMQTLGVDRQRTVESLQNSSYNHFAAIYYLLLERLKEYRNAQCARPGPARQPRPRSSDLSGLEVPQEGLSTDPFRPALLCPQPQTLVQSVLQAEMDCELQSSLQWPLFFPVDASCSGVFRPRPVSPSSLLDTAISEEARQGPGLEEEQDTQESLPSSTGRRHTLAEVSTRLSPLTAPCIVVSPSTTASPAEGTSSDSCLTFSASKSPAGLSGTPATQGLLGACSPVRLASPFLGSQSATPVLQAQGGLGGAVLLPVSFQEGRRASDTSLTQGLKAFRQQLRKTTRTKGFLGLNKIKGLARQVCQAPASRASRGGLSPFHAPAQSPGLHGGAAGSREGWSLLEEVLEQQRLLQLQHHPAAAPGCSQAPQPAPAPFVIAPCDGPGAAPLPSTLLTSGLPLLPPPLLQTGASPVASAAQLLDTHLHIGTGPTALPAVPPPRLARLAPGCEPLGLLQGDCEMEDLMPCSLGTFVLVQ
Outline: as §1

CAMK1G = CAMK1G (Homo sapiens, UniProt Q96NX5); details: read-out: % control
Chain of CAMK1G (Q96NX5 whole entry): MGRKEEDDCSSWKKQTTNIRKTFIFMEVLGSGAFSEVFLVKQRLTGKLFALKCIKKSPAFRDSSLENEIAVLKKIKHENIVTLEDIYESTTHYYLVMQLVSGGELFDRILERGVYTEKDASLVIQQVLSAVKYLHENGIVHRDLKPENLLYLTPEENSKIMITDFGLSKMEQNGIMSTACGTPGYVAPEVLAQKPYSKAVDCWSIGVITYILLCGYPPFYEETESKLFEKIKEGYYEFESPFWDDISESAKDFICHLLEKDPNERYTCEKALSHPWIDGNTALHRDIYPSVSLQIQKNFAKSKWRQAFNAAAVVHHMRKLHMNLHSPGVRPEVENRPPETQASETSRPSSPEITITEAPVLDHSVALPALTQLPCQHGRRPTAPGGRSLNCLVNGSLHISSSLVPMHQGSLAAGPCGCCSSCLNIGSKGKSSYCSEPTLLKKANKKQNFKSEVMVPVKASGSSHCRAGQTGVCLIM
Outline: as §1

VEGFR2 = VEGFR2 (Homo sapiens, UniProt P35968); details: VEGFR2, 1 μM; read-out: % control
Chain of VEGFR2 (P35968 20-1356): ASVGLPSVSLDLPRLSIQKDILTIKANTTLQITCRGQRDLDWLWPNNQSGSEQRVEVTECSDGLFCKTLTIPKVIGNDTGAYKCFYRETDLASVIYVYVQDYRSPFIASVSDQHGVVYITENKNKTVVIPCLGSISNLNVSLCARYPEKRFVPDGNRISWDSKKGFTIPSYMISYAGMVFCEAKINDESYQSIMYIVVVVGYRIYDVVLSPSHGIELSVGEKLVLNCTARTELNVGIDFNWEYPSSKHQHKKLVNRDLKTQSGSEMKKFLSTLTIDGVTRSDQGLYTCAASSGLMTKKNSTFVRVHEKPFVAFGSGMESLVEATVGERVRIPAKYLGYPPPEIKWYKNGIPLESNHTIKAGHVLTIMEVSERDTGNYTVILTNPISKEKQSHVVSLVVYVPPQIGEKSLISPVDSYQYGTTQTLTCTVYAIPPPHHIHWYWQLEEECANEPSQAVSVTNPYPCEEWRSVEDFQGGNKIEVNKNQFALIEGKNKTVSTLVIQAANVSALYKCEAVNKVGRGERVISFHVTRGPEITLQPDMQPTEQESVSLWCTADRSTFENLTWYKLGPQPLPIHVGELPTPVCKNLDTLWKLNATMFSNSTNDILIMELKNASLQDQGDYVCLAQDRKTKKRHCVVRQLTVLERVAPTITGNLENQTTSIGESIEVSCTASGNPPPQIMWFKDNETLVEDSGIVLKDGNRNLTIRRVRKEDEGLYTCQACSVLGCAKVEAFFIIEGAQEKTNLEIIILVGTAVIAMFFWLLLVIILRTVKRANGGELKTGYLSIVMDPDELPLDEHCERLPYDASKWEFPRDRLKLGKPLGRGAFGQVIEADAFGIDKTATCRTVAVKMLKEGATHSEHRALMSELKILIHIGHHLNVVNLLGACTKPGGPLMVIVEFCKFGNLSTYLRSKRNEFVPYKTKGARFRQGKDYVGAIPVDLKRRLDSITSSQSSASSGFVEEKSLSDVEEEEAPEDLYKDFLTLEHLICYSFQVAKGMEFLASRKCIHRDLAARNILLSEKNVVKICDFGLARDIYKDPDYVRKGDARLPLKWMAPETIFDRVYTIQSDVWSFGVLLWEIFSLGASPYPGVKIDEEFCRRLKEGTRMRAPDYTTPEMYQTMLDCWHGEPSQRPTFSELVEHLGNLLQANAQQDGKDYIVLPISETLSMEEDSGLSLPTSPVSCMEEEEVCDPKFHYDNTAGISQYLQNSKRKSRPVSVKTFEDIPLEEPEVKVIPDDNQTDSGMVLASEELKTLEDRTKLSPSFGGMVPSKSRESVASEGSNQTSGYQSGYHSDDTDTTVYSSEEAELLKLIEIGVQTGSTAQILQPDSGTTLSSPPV
Outline: as §1

DCAMKL1 = target: T2, DCAMKL1 (Homo sapiens, UniProt O15075); details: DCAMKL1, 1 μM; read-out: % control
T2 sequence (O15075 1-740): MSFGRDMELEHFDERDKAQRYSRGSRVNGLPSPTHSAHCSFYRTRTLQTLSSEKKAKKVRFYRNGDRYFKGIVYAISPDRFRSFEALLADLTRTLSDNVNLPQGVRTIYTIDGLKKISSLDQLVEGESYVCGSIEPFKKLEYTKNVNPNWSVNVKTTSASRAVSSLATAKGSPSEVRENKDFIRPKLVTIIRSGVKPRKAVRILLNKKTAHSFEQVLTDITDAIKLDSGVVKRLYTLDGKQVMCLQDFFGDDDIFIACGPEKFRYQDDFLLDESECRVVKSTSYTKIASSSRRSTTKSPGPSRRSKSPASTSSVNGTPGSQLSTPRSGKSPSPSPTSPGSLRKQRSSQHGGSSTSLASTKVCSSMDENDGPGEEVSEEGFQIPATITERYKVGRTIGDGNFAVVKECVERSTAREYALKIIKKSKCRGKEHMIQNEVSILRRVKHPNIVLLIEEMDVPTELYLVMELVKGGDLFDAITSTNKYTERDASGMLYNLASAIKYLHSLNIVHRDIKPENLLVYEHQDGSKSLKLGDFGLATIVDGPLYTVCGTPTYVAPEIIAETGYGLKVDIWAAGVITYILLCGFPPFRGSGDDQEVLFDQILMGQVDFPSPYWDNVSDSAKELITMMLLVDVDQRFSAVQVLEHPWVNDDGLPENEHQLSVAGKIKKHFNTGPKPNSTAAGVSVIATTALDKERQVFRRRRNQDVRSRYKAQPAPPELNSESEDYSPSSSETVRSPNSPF
Outline: as §1

MEK4 = target: T3, MEK4 (Homo sapiens, UniProt P45985); details: MEK4, 1 μM; read-out: % control
T3 sequence (P45985 1-399): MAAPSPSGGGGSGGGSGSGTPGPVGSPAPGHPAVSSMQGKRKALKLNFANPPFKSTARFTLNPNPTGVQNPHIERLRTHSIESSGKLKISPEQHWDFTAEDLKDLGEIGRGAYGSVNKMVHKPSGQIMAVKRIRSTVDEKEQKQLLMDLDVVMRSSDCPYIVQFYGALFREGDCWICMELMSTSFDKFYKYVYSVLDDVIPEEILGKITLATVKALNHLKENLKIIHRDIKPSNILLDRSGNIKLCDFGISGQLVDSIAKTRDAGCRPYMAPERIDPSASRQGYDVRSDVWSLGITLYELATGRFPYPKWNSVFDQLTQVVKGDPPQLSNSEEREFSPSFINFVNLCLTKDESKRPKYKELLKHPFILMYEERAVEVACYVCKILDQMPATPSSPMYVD
Outline: as §1

PRKCQ = PRKCQ (Homo sapiens, UniProt Q04759); details: read-out: % control
Chain of PRKCQ (Q04759 whole entry): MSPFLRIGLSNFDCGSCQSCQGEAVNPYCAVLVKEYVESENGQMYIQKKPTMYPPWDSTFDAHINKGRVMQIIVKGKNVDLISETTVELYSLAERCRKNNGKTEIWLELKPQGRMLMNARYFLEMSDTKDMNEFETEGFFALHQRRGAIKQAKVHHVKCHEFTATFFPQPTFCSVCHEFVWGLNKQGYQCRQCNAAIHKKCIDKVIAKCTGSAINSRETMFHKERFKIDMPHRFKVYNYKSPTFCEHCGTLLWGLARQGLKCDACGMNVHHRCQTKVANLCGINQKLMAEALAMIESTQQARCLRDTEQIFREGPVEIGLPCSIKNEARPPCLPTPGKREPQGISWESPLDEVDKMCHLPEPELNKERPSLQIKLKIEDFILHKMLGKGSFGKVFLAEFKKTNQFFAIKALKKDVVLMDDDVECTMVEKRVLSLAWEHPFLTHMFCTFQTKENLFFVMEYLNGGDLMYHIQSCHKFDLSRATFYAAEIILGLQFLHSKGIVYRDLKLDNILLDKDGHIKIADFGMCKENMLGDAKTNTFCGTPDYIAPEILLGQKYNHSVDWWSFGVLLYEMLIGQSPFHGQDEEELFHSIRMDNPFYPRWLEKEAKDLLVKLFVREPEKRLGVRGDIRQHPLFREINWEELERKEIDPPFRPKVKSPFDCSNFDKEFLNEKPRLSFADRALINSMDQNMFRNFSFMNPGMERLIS
Outline: as §1

Chain of NEK7 (Q8TDX7 whole entry): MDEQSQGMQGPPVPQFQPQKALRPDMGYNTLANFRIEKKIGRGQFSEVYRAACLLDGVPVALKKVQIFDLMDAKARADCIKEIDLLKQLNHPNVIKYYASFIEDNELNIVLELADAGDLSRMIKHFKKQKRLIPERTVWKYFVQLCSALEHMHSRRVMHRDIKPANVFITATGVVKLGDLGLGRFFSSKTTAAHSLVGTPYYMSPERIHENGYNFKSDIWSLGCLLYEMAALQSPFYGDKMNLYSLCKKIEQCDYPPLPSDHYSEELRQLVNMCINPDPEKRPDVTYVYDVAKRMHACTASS
Chain of IGF1R (P08069 31-1367): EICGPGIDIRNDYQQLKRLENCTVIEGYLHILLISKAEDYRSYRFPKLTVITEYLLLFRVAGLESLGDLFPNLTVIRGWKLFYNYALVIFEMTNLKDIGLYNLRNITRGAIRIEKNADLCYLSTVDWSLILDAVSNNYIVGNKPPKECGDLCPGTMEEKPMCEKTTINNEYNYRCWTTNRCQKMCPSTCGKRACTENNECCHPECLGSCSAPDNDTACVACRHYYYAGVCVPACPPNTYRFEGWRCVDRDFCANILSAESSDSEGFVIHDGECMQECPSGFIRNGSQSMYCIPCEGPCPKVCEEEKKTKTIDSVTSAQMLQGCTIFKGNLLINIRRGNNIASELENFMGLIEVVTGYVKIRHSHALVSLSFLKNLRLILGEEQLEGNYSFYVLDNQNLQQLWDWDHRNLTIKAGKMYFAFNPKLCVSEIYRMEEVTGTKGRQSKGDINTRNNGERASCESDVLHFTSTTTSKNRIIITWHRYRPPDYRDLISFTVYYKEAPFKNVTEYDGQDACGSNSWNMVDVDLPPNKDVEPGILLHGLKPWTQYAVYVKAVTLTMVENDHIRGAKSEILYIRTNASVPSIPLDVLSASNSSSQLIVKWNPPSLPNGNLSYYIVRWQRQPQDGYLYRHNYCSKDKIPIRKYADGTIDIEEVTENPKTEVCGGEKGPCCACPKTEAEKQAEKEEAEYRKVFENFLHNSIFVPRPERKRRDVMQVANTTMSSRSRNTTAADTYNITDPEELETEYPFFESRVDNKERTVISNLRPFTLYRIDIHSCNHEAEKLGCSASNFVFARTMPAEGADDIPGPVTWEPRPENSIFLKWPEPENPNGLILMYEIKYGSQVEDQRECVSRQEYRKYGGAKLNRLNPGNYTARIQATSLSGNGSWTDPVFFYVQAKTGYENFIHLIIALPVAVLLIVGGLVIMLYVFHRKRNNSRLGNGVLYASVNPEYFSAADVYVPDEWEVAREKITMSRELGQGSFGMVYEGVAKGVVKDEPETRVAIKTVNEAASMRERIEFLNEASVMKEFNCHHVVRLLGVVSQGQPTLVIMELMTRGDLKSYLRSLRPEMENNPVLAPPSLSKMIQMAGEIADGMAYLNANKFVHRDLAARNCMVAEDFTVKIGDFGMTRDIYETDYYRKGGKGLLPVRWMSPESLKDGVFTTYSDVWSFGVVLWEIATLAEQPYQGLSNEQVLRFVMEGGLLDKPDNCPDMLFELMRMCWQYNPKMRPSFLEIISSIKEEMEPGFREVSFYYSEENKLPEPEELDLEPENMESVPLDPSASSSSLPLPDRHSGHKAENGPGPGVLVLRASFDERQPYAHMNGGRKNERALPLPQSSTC

SMILES | remaining binding at 1 µM (IGF1R) [%] | remaining binding at 1 µM (NEK7) [%] | remaining binding at 1 µM (SIK) [%] | remaining binding at 1 µM (CAMK1G) [%] | remaining binding at 1 µM (VEGFR2) [%] | remaining binding at 1 µM (DCAMKL1) [%] | remaining binding at 1 µM (MEK4) [%] | remaining binding at 1 µM (PRKCQ) [%]
CNc1c(-c2cnn([C@H]3CCN(C(C)=O)C[C@@H]3F)c2)cnc2[nH]cc(Cl)c12 [Compound 77, 1-((3S,4S)-4-(4-(3-chloro-4-(methylamino)-1H-pyrrolo[2,3-b]pyridin-5-yl)-1H-pyrazol-1-yl)-3-fluoropiperidin-1-yl)ethan-1-one] | 91 | 100 | 94 | 100 | 2.8 | 79 | 45 | 91
O=C(c1ccc(-c2cnc3[nH]cc(Cl)c3c2NC2CCCC2)cc1)N1CCC(N2CCOCC2)CC1 [Compound 101, (4-(3-chloro-4-(cyclopentylamino)-1H-pyrrolo[2,3-b]pyridin-5-yl)phenyl)(4-morpholinopiperidin-1-yl)methanone] | 86 | 95 | 100 | 93 | 33 | 90 | 28 | 45
CNc1c(-c2ccc(C(=O)N3CCC(N4CCOCC4)CC3)cc2)cnc2[nH]cc(Cl)c12 [Compound 96, (4-(3-chloro-4-(methylamino)-1H-pyrrolo[2,3-b]pyridin-5-yl)phenyl)(4-morpholinopiperidin-1-yl)methanone] | 100 | 100 | 87 | 98 | 4.2 | 77 | 7.3 | 76

— US12275731B2, “Azaindole inhibitors of wild-type and mutant forms of LRRK2” (DANA-FARBER CANCER INSTITUTE, INC., priority 2018, dated 2025)
